Source: publication PMC7450492 (Molecular cancer therapeutics, 2020)
In brackets after ≈: the same amount, converted by molar mass. Entries after “also recorded” stand apart in the source; their conditions may differ.

Tests used:
[1] = test system: LLC tumors; assay: LLC tumors in Syk^MC-KO mice; type: in vivo, mouse
[2] = test system: LLC tumors; assay: LLC syngeneic tumor in WT mice; type: in vivo; conditions: for infiltration of CD8+ T cells in LLC tumors: treated LLC tumors
[3] = test system: B16-OVA tumor; assay: B16-OVA tumor in C57BL/6 mice; type: in vivo, mouse
[4] = test system: LLC cells; assay: viability of LLC cells; type: cell-based, mouse
[5] = test system: LLC tumor; assay: LLC tumor with macrophage depletion by anti-CSF1R; type: in vivo, mouse; conditions: macrophage depleted mice
[6] = test system: T cells; assay: T cell proliferation ex vivo; type: cell-based, mouse
[7] = PK in mice, i.v. and oral; type: in vivo, mouse; conditions: prototype formulation, preliminary
[8] = test system: immunosuppressive gene expression in MΦ; assay: immunosuppressive MΦ polarization, gene expression; type: cell-based; conditions: very low dose, compared to IPI-549 or R488 alone
[9] = biological target: Syk (Homo sapiens, UniProt P43405); assay: cell free enzymatic inhibition of Syk; type: biochemical; conditions: read-out: Syk inhibitory activity IC50; cell free system
[10] = test system: PI3K isoforms p110α, p110β, p110γ and p110δ; assay: cell free enzymatic inhibition of PI3K isoforms; type: biochemical; conditions: in vitro
[11] = solubility in water; type: physicochemical
[12] = metabolic stability; type: in vitro ADME
[13] = test system: p-AKT; assay: p-AKT blockade; type: cell-based; conditions: 10 µM conc.
[14] = test system: CT26 tumor; assay: CT26 tumor in NSG or Balb/c mice; type: in vivo, mouse

SMILES	LLC tumor growth in Syk^MC-KO mice [1]	tumor growth and metastasis ([2]; LLC, WT mice, 40 mg/kg R788 orally, vs vehicle)	infiltration of CD8+ T cells in LLC tumors [2]	OVA specific CD8+ T cells in tumor draining lymph nodes ([3]; B16-OVA, H-2K^b SIINFEKL tetramers)	B16-OVA tumor growth ([3]; C57BL/6 mice, R788 40 mg/kg, anti-PDL1 200µg, 40 mg/kg)	viability of LLC cells [4]	LLC tumor growth, combination with anti-CSF1R (CD115) antibody [5]	T cell proliferation [6]	toxicity in tumor-bearing mice ([2]; 10 mg/kg dose)	LLC tumor growth and survival ([2]; 10 mg/kg oral, WT mice, compared to IPI549 and R788 at similar doses)	half-life ([7]; 5mg/kg IV and 15 mg/kg PO)	bioavailability ([7]; oral 15 mg/kg PO vs 5mg/kg IV)	immunosuppressive gene expression [8]	IC50 [9] [nM]	PI3K inhibitory potency [10]	solubility in water [11] [µM]	CLint [12] [µL/min/mg protein]	p-AKT blockade [13]	CT26 tumor growth in Balb/c mice ([14]; Balb/c mice)	CT26 tumor growth in NSG mice ([14]; NSG mice)
C[C@H](NC(=O)c1c(N)nn2cccnc12)c1cc2cccc(C#Cc3cnn(C)c3)c2c(=O)n1-c1ccccc1 [IPI549]	significantly decreased																			
COc1cc(Nc2ncc(F)c(Nc3ccc4c(n3)N(COP(=O)(O)O)C(=O)C(C)(C)O4)n2)cc(OC)c1OC [R788, Fostamatinib]	didn’t show additive reduction	significantly suppressed	increased infiltration	increased	significantly blocked tumor growth; also recorded: substantially inhibited	no effect	no additive effects	no effect												
Cc1nn(-c2ccnc(Nc3ccc(-c4csc5c(=O)cc(N6CCOCC6)oc45)cc3)n2)cc1CN1CCC1 [SRX3207]	significantly decreased		increased infiltration				no additive effects	didn’t affect	without toxicity	blocked tumor growth and increased survival effectively	about 5 hours	around 2%	potently blocks	30	acceptable PI3K inhibitory properties	43 (≈ 23.9 µg/mL)	74	able to block	blocked tumor growth	didn’t block
